{"source": "PubChem BioAssay AID743394", "about": "(Broad Institute, 2014)", "system": "68-5-11 mouse fibroblast XiGFP reporter, % GFP-positive imaging, 3 d", "test": "inactive X chromosome reactivation in XiGFP fibroblasts, dose response, imaging, 68-5-11 mouse fibroblasts, GFP, cherry-pick (AID 743394);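 note: sensitizer 5-aza-dC present in the wells at 0.5 mM final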", "conditions": "cells co-treated with 5-aza-dC sensitizer", "data": [{"smiles": "Cc1ccc2[nH]c(C)c(/C=C/c3cc[n+](C)cc3)c2c1", "values": [{"measurement": "AC40", "result": 8.58, "unit": "µM"}]}]}
